Laboratory results from PubChem BioAssay AID330 (DTP/NCI, 2004).
“And” between values parts separate entries of the source, which are not always exact repeats. Equal entries are not always repeated. Inconclusive results and toxic doses are left out.

Tested on: P388 leukemia ip, CD2F1 mice, survival T/C
Experiment: NCI In Vivo Anticancer Drug Screen. Data for tumor model P388 Leukemia (intraperitoneal) in CD2F1 (CDF1) mice
Settings: endpoint: median survival time, higher = longer survival
Method in brief: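 Mice carrying the transplanted tumor received test compound or vehicle. Survival was recorded in each group, and the value is the treated-group measurement divided by that of the vehicle-treated control group.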

[1] = dose: 240.0 mg/kg/injection, schedule: Q01DX005 (ip), vehicle: saline with Tween-80
[2] = dose: 60.0 mg/kg/injection, schedule: Q01DX005 (ip), vehicle: saline with Tween-80
[3] = dose: 120.0 mg/kg/injection, schedule: Q01DX005 (ip), vehicle: saline with Tween-80
[4] = dose: 100.0 mg/kg/injection, schedule: Q01DX001 (ip), vehicle: saline
[5] = dose: 200.0 mg/kg/injection, schedule: Q01DX001 (ip), vehicle: saline
[6] = dose: 400.0 mg/kg/injection, schedule: Q01DX001 (ip), vehicle: saline

CCOC(=O)c1ccc(NC(=S)Nc2nccs2)cc1
T/C (dose: 25.0 mg/kg/injection, schedule: Q01DX009 (ip), vehicle: distilled water + Tween-80): 99 % of control | T/C (dose: 50.0 mg/kg/injection, schedule: Q01DX009 (ip), vehicle: distilled water + Tween-80): 101 % of control | T/C (dose: 100.0 mg/kg/injection, schedule: Q01DX009 (ip), vehicle: distilled water + Tween-80): 95 % of control | T/C (dose: 200.0 mg/kg/injection, schedule: Q01DX009 (ip), vehicle: distilled water + Tween-80): 92 % of control | T/C (dose: 400.0 mg/kg/injection, schedule: Q01DX009 (ip), vehicle: distilled water + Tween-80): 92 % of control

O=S(=O)(O)c1ccccc1N=Nc1ccc(N(CCCl)CCCl)cc1
T/C (dose: 100.0 mg/kg/injection, schedule: Q01DX009 (ip), vehicle: saline with Tween-80): 156 % of control

O=C(N/C(=C\c1ccccc1)C(=O)N1CCN(c2ccccc2)CC1)c1ccccc1
T/C (dose: 50.0 mg/kg/injection, schedule: Q01DX005 (ip), vehicle: saline with Tween-80): 98 % of control | T/C (dose: 100.0 mg/kg/injection, schedule: Q01DX005 (ip), vehicle: saline with Tween-80): 98 % of control | T/C (dose: 200.0 mg/kg/injection, schedule: Q01DX005 (ip), vehicle: saline with Tween-80): 86 % of control

CC(=O)NCc1ccccc1N1CCCC1
T/C (dose: 100.0 mg/kg/injection, schedule: Q04DX003 (ip), vehicle: saline): 101 % of control | T/C (dose: 200.0 mg/kg/injection, schedule: Q04DX003 (ip), vehicle: saline): 106 % of control | T/C (dose: 400.0 mg/kg/injection, schedule: Q04DX003 (ip), vehicle: saline): 101 % of control

COc1cc2cc3cc(-c4ccc(Cl)cc4)c(N4CCCCC4)nc3nc2cc1OC
T/C (dose: 3.75 mg/kg/injection, schedule: Q01DX005 (ip), vehicle: saline with Tween-80): 92 % of control | T/C (dose: 7.5 mg/kg/injection, schedule: Q01DX005 (ip), vehicle: saline with Tween-80): 87 % of control | T/C (dose: 30.0 mg/kg/injection, schedule: Q01DX005 (ip), vehicle: saline with Tween-80): 86 % of control | T/C [1]: 91 % of control

CCc1nc(N)nc(N)c1-c1ccc(OC)c(N=[N+]=[N-])c1
T/C [2]: 97 % of control | T/C [3]: 100 % of control | T/C [1]: 117 % of control

O=C([CH-]C(=O)C(F)(F)F)c1ccco1.O=C([CH-]C(=O)C(F)(F)F)c1ccco1.O=C([CH-]C(=O)C(F)(F)F)c1ccco1.[Ru+3]
T/C [2]: 100 % of control | T/C [3]: 97 % of control | T/C [1]: 89 % of control

O=C1C2=C(Nc3cc(Cl)ccc3N2)OC1c1ccc(Cl)c(Cl)c1 (configuration not stated)
T/C (dose: 50.0 mg/kg/injection, schedule: Q01DX005 (ip), vehicle: Klucel (hydroxypropylcellulose) (HPC)): 92 % of control | T/C (dose: 200.0 mg/kg/injection, schedule: Q01DX005 (ip), vehicle: Klucel (hydroxypropylcellulose) (HPC)): 88 % of control

C=C1CC2(CC3C(CC2C)C3(C)C)OC1=O (configuration not stated)
T/C [4]: 101 % of control | T/C [5]: 101 % of control | T/C [6]: 104 % of control

C=C1C(=O)OC2/C=C(/C)C3CC(O)C(C)(CC(OC(=O)/C(C)=C/C)C12)O3 (configuration not stated)
T/C (dose: 10.0 mg/kg/injection, schedule: Q01DX009 (ip), vehicle: saline with Tween-80): 96 % of control and 105 % of control | T/C (dose: 20.0 mg/kg/injection, schedule: Q01DX009 (ip), vehicle: saline with Tween-80): 96 % of control and 107 % of control | T/C (dose: 40.0 mg/kg/injection, schedule: Q01DX009 (ip), vehicle: saline with Tween-80): 109 % of control and 119 % of control | T/C (dose: 80.0 mg/kg/injection, schedule: Q01DX009 (ip), vehicle: saline with Tween-80): 123 % of control and 117 % of control

Cc1ccc(C)c(C2=C/C(=C/c3ccc(N(CCC#N)CCC#N)cc3)C(=O)O2)c1
T/C (dose: 100.0 mg/kg/injection, schedule: Q01DX001 (ip), vehicle: saline with Tween-80): 97 % of control | T/C (dose: 200.0 mg/kg/injection, schedule: Q01DX001 (ip), vehicle: saline with Tween-80): 92 % of control | T/C (dose: 400.0 mg/kg/injection, schedule: Q01DX001 (ip), vehicle: saline with Tween-80): 101 % of control

COC(=O)n1c(=O)ccc(=O)n1C(=O)OC
T/C (dose: 50.0 mg/kg/injection, schedule: Q01DX001 (ip), vehicle: saline): 100 % of control and 103 % of control | T/C [4]: 98 % of control and 100 % of control and 106 % of control | T/C [5]: 100 % of control and 106 % of control and 115 % of control | T/C [6]: 100 % of control and 112 % of control and 122 % of control

COc1cc2c(cc1OC)-c1ccc(OC)c(=O)cc1CC(NC(=O)C(C)=O)C2 (configuration not stated)
T/C (dose: 0.63 mg/kg/injection, schedule: Q01DX009 (ip), vehicle: Klucel (hydroxypropylcellulose) (HPC)): 153 % of control | T/C (dose: 1.25 mg/kg/injection, schedule: Q01DX009 (ip), vehicle: Klucel (hydroxypropylcellulose) (HPC)): 105 % of control | T/C (dose: 78.0 micrograms/kg/injection, schedule: Q01DX009 (ip), vehicle: Klucel (hydroxypropylcellulose) (HPC)): 120 % of control | T/C (dose: 625.0 micrograms/kg/injection, schedule: Q01DX009 (ip), vehicle: Klucel (hydroxypropylcellulose) (HPC)): 151 % of control
